In data set [1] the target is GAPDH (Homo sapiens, UniProt P04406). Put plainly: GAPDH equilibrium in the GAPDH/PGK1 coupled assay. The format is biochemical. The settings on record: without PGK1. The text has this: FIG. 6A-D. CBR-470-1 inhibits PGK1 in vitro and in situ. (a) Schematic of the GAPDH/PGK1 coupled assay. Pre-equilibration of the GAPDH reaction (top left) results in an NAD^+/NADH equilibrium, which upon addition of PGK1 and ADP pulls the reaction to the right producing more NADH. Monitoring NADH absorbance after addition of PGK1 (bottom right) can be used to monitor PGK1 activity in the forward direction (right). […] (c, d) Relative level of central metabolites in IMR32 cells treated with viral knockdown of PGK1 for 72 hours (c) (n=4) and with CBR-470-1 relative DMSO alone for the indicative times (d) (n=3). Each metabolite is normalized to the control condition at each time point. Data shown represent mean±SEM of biologically independent samples.
Recombinant PGK1 assay. PGK1 enzymatic activity in the forward direction was measured with a coupled enzymatic assay^34. Three PGK1 conditions were prepared by dissolving recombinant PGK1 in potassium phosphate buffer (10 mM KH2PO4, 10 mM MgSO4, pH 7.0), and transferring the aliquots of PGK1 solution to the microtubes being treated with same amount of DMSO and indicated concentrations of CBR-470-1. Final concentration of PGK1 is 20 ng/mL and DMSO is 1% for each sample. […] The change in absorbance at 340 nm at room temperature was measured every 20 seconds for 45 minutes, by Tecan Infinite M200 plate reader. […]

Data set [2] relates to IMR32. Put plainly: Seahorse XF96 global bioenergetics in IMR32 cells. The format is cell-based. The settings on record: IMR32, 1 hr. As to the method:
Cells were plated for 24 hrs., then incubated with the indicated doses of CBR-470 for 1 hr. Under CBR-470-1 treated conditions, cellular ECAR and OCR was recorded for CBR-470 alone, CBR-470+10 mM Glucose, and CBR-470+3 μM Oligomycin.
Genetic manipulation of central glycolytic targets GLO1 and PGK1 regulate viability in the very sensitive colorectal cancer cell line HCT116. […] (FIG. 42). […] Cells were plated for 24 hrs., then incubated with the indicated doses of CBR-470 for 1 hr. Under CBR-470-1 treated conditions, cellular ECAR and OCR was recorded for CBR-470 alone, CBR-470+10 mM Glucose, and CBR-470+3 μM Oligomycin.

The nature of data set [3]: LC-MS quantification of compound incubated with or without GSH (glutathione reactivity). Type of data set: physicochemical. The settings on record: 50 μM compound, GSH 1 mM in PBS, 1 hour and 48 hours. As to the method:
FIG. 4 A high throughput screen identifies a non-covalent NRF2 activator chemical series which activate a robust NRF2 transcriptional program in multiple cell types. LC-MS quantification of CBR-470-1 (50 μM) incubated in the presence or absence of GSH (1 mM) in PBS for 1 hour (left) and 48 hours (right). Relative ion intensities within each time point were compared with representative chromatograms shown (n=2).

In data set [4] the test system is IMR32 cells. Put plainly: Targeted LC-MS measurement of cellular MGx levels in IMR32 cells. The format is cell-based. The settings on record: relative to DMSO. An excerpt:
FIG. 8A-H. MGx and glyoxylase activity regulates NRF2 activation. CBR-470-1 causes elevated MGx levels in cells. (a) Schematic depicting chemical derivatization and trapping of cellular MGx for analysis by targeted metabolomics using two unique fragment ions. (b, c) Daughter ion fragments (b) and resulting MS/MS quantification of MGx levels (c) in IMR32 cells treated with CBR-470-1, relative to DMSO (n=4). (d) Quantitative LC-MS/MS measurement of cellular MGx levels in IMR32 cells treated for 2 hours with CBR-470-1 or co-treated for 2 hours with CBR-470-1 and NAC (2 mM) relative to DMSO (n=4).
Quantitative Metabolomic Profiling. […] Metabolite peak transitions and retention times are listed in Table 2 and were confirmed by running standards for measured glycolytic, PPP, CAC and co-factor metabolites. 2-phosphoglycerate and 3-phosphoglycerate isomers were quantified in aggregate (2PG/3PG). Relative metabolite abundance was quantified by integrated peak area for the given MRM-transition, and all metabolite levels were normalized to internal standard extracted ion intensity values for d3-serine. These parameters were used to quantify all metabolites, with the exception of 1,3-BPG and MGx, which required chemical derivitization to stable intermediates prior to LC-MS/MS quantification, as previously reported^20, 33. […]

This is an account of results in patent US12048686B2, “Compositions and methods for activating NRF2-dependent gene expression” (The University of Chicago, priority 2018, dated 2024).

GAPDH, sequence (P04406 whole entry, species assumed): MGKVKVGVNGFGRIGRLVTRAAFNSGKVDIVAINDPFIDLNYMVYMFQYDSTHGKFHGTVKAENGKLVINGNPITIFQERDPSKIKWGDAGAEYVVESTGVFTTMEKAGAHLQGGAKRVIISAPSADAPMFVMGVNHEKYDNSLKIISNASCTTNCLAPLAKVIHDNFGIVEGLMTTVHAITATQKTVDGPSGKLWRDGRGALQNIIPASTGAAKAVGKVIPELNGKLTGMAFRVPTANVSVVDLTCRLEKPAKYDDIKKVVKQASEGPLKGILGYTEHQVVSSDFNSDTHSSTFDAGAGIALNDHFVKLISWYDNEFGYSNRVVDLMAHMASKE

As to `CC(C)CN[C@H]1CS(=O)(=O)C[C@@H]1S(=O)(=O)c1ccc(Cl)cc1` [CBR-470-1], the GAPDH equilibrium result in data set [1] is given as “does not affect the GAPDH equilibrium alone”. For the same compound, in data set [2], the “glycolytic flux (Extracellular Acidification Rate, ECAR)” value was “reduced glycolytic flux and oxidative phosphorylation rate”; the “oxidative phosphorylation rate (Oxygen Consumption Rate, OCR)” value is “reduced glycolytic flux and oxidative phosphorylation rate”. Moreover, the “reactivity in glutathione assays” value in data set [3] is “not reactive in glutathione assays”. Moreover, the “cellular MGx levels” value in data set [4] was “significant elevation of cellular MGx levels in the first few hours of treatment”.
